# From PubChem BioAssay (NCI)
#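 Method: 48-hour compound exposure of cells in 96-well plates, five concentrations, linear interpolation of endpoints. Abbreviation: GI50, concentration required for 50% inhibition of growth. Definition used: TGI = concentration required for complete inhibition of growth.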
# Assays:
# Assay in all cases: growth of human tumour cells (NCI), 48 h
# HL-60(TB) leukemia = test system: HL-60(TB) leukemia
# 786-0 renal = test system: 786-0 renal
# ACHN renal = test system: ACHN renal
# SN12C renal = test system: SN12C renal
# SNB-75 CNS = test system: SNB-75 CNS
# NCI/ADR-RES ovarian = test system: NCI/ADR-RES ovarian
# LOX IMVI melanoma = test system: LOX IMVI melanoma
# MDA-MB-468 breast = test system: MDA-MB-468 breast
# DU-145 prostate = test system: DU-145 prostate
# BT-549 breast = test system: BT-549 breast
# MALME-3M melanoma = test system: MALME-3M melanoma
# EKVX NSCLC = test system: EKVX NSCLC
# SF-268 CNS = test system: SF-268 CNS
# U251 CNS = test system: U251 CNS
# A498 renal = test system: A498 renal
# SW-620 colon = test system: SW-620 colon
# K-562 leukemia = test system: K-562 leukemia
# NCI-H226 lung = test system: NCI-H226 lung
# HCC-2998 colon = test system: HCC-2998 colon
# OVCAR-5 ovarian = test system: OVCAR-5 ovarian
# OVCAR-4 ovarian = test system: OVCAR-4 ovarian
# CAKI-1 renal = test system: CAKI-1 renal
# SR leukemia = test system: SR leukemia
# MDA-MB-231 breast = test system: MDA-MB-231 breast
# UACC-257 melanoma = test system: UACC-257 melanoma
# OVCAR-8 ovarian = test system: OVCAR-8 ovarian
# T-47D breast = test system: T-47D breast
# SK-MEL-28 melanoma = test system: SK-MEL-28 melanoma
# SNB-19 CNS = test system: SNB-19 CNS
# MDA-MB-435 = test system: MDA-MB-435
structure (smiles),measurement,setting,value
Cc1cc2nc3c4ccccc4n(CCCN(C)C)c3nc2cc1C,GI50,HL-60(TB) leukemia,2.19 µM
same,TGI,HL-60(TB) leukemia,5.43 µM
same,GI50,786-0 renal,3 µM
same,TGI,786-0 renal,11.8 µM
same,GI50,ACHN renal,1.73 µM
same,TGI,ACHN renal,4.91 µM
same,GI50,SN12C renal,2.33 µM
same,TGI,SN12C renal,10.1 µM
same,GI50,SNB-75 CNS,1.85 µM
same,TGI,SNB-75 CNS,10.2 µM
same,GI50,NCI/ADR-RES ovarian,1.41 µM
same,TGI,NCI/ADR-RES ovarian,3.57 µM
same,GI50,LOX IMVI melanoma,1.35 µM
same,TGI,LOX IMVI melanoma,2.87 µM
same,GI50,MDA-MB-468 breast,2.46 µM
same,TGI,MDA-MB-468 breast,7.54 µM
same,GI50,DU-145 prostate,3.16 µM
same,TGI,DU-145 prostate,9.57 µM
same,GI50,BT-549 breast,2.51 µM
same,TGI,BT-549 breast,9.68 µM
same,GI50,MALME-3M melanoma,1.82 µM
same,TGI,MALME-3M melanoma,3.91 µM
same,GI50,EKVX NSCLC,3.01 µM
same,TGI,EKVX NSCLC,10.1 µM
same,GI50,SF-268 CNS,2.95 µM
same,TGI,SF-268 CNS,10.1 µM
same,GI50,U251 CNS,2 µM
same,TGI,U251 CNS,6.42 µM
same,GI50,A498 renal,3.97 µM
same,TGI,A498 renal,13 µM
same,GI50,SW-620 colon,1.72 µM
same,TGI,SW-620 colon,5.45 µM
same,GI50,K-562 leukemia,2.52 µM
same,TGI,K-562 leukemia,10.2 µM
same,GI50,NCI-H226 lung,2.38 µM
same,TGI,NCI-H226 lung,9.14 µM
same,GI50,HCC-2998 colon,1.74 µM
same,TGI,HCC-2998 colon,3.83 µM
same,GI50,OVCAR-5 ovarian,2.34 µM
same,TGI,OVCAR-5 ovarian,6.87 µM
same,GI50,OVCAR-4 ovarian,2.65 µM
same,TGI,OVCAR-4 ovarian,8.11 µM
same,GI50,CAKI-1 renal,2.08 µM
same,TGI,CAKI-1 renal,7.36 µM
same,GI50,SR leukemia,2.03 µM
same,TGI,SR leukemia,6.94 µM
same,GI50,MDA-MB-231 breast,1.94 µM
same,TGI,MDA-MB-231 breast,4.79 µM
same,GI50,UACC-257 melanoma,1.84 µM
same,TGI,UACC-257 melanoma,4.41 µM
same,GI50,OVCAR-8 ovarian,1.32 µM
same,TGI,OVCAR-8 ovarian,4.08 µM
same,GI50,T-47D breast,2.72 µM
same,TGI,T-47D breast,9.11 µM
same,GI50,SK-MEL-28 melanoma,3.06 µM
same,TGI,SK-MEL-28 melanoma,9.72 µM
same,GI50,SNB-19 CNS,2.99 µM
same,TGI,SNB-19 CNS,11.5 µM
same,GI50,MDA-MB-435,2.09 µM
